Reference: the supplement of paper PMC13207355

Columns and labels:
Conditions in all cases: exposure time: 72 h
E34 [1] = patient-derived glioblastoma stem cells of proneural subtype; assay: phenotypic distance (Euclidean, principal components) from DMSO controls (arbitrary units); higher = stronger morphological change
E31 [2] = patient-derived glioblastoma stem cells of proneural subtype; assay: as above
E21 [3] = patient-derived glioblastoma stem cells of mesenchymal subtype; assay: as above
E28 [4] = patient-derived glioblastoma stem cells of classical subtype; assay: as above
E57 [5] = patient-derived glioblastoma stem cells of mesenchymal subtype; assay: as above
E13 [6] = patient-derived glioblastoma stem cells of classical subtype; assay: as above
FT3469 [7] = normal neural stem cell line; assay: as above
E34 [8] = assay: surviving fraction (nuclei count normalised to DMSO); higher = more cells surviving (less toxic)
E31 [9] = assay: as above
E21 [10] = assay: as above
E28 [11] = assay: as above
E57 [12] = assay: as above
E13 [13] = assay: as above
FT3469 [14] = assay: as above
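Wherever phenotypic distance (Euclidean, principal components) from DMSO controls is given: cell Painting imaging in 384-well plates, CellProfiler features reduced to at least 20 principal components, Euclidean distance versus same-plate DMSO vehicle wells (0.1% v/v), median over six images per well.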
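Wherever surviving fraction (nuclei count normalised to DMSO) is given: nuclei counted by high-content imaging of Hoechst-stained cells in laminin-coated 384-well plates, relative to 0.1% DMSO vehicle wells, with staurosporine as cell-death control.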

Compound: Oc1c(Cl)cc(Cl)c(Cl)c1Cc1c(O)c(Cl)cc(Cl)c1Cl [Hexachlorophene]
- phenotypic distance (E34 [1]; 4.1 nM): 0.861
- phenotypic distance (E34 [1]; 12.3 nM): 0.839
- phenotypic distance (E34 [1]; 37 nM): 0.672
- phenotypic distance (E34 [1]; 111.1 nM): 0.741
- phenotypic distance (E34 [1]; 333.3 nM): 1.14
- phenotypic distance (E34 [1]; 1000 nM): 2.31
- phenotypic distance (E34 [1]; 3000 nM): 3.14
- phenotypic distance (E31 [2]; 4.1 nM): 0.745
- phenotypic distance (E31 [2]; 12.3 nM): 0.7
- phenotypic distance (E31 [2]; 37 nM): 0.853
- phenotypic distance (E31 [2]; 111.1 nM): 0.867
- phenotypic distance (E31 [2]; 333.3 nM): 1.39
- phenotypic distance (E31 [2]; 1000 nM): 1.83
- phenotypic distance (E31 [2]; 3000 nM): 3.79
- phenotypic distance (E21 [3]; 4.1 nM): 1
- phenotypic distance (E21 [3]; 12.3 nM): 0.629
- phenotypic distance (E21 [3]; 37 nM): 1.26
- phenotypic distance (E21 [3]; 111.1 nM): 0.988
- phenotypic distance (E21 [3]; 333.3 nM): 1.51
- phenotypic distance (E21 [3]; 1000 nM): 2.2
- phenotypic distance (E21 [3]; 3000 nM): 4.77
- phenotypic distance (E28 [4]; 4.1 nM): 1.12
- phenotypic distance (E28 [4]; 12.3 nM): 0.421
- phenotypic distance (E28 [4]; 37 nM): 0.961
- phenotypic distance (E28 [4]; 111.1 nM): 0.709
- phenotypic distance (E28 [4]; 333.3 nM): 0.784
- phenotypic distance (E28 [4]; 1000 nM): 1.11
- phenotypic distance (E28 [4]; 3000 nM): 1.45
- phenotypic distance (E57 [5]; 4.1 nM): 0.958
- phenotypic distance (E57 [5]; 12.3 nM): 0.865
- phenotypic distance (E57 [5]; 37 nM): 1
- phenotypic distance (E57 [5]; 111.1 nM): 1.03
- phenotypic distance (E57 [5]; 333.3 nM): 2.28
- phenotypic distance (E57 [5]; 1000 nM): 3.09
- phenotypic distance (E57 [5]; 3000 nM): 6.18
- phenotypic distance (E13 [6]; 4.1 nM): 0.81
- phenotypic distance (E13 [6]; 12.3 nM): 0.795
- phenotypic distance (E13 [6]; 37 nM): 3
- phenotypic distance (E13 [6]; 111.1 nM): 0.903
- phenotypic distance (E13 [6]; 333.3 nM): 3.34
- phenotypic distance (E13 [6]; 1000 nM): 1.8
- phenotypic distance (E13 [6]; 3000 nM): 3.77
- phenotypic distance (FT3469 [7]; 4.1 nM): 0.687
- phenotypic distance (FT3469 [7]; 12.3 nM): 1.29
- phenotypic distance (FT3469 [7]; 37 nM): 0.725
- phenotypic distance (FT3469 [7]; 111.1 nM): 0.625
- phenotypic distance (FT3469 [7]; 333.3 nM): 1.47
- phenotypic distance (FT3469 [7]; 1000 nM): 1.56
- phenotypic distance (FT3469 [7]; 3000 nM): 2.68
- surviving fraction (E34 [8]; 4.1 nM): 0.818
- surviving fraction (E34 [8]; 12.3 nM): 0.897
- surviving fraction (E34 [8]; 37 nM): 1
- surviving fraction (E34 [8]; 111.1 nM): 0.845
- surviving fraction (E34 [8]; 333.3 nM): 0.754
- surviving fraction (E34 [8]; 1000 nM): 0.721
- surviving fraction (E34 [8]; 3000 nM): 0.448
- surviving fraction (E31 [9]; 4.1 nM): 0.956
- surviving fraction (E31 [9]; 12.3 nM): 0.937
- surviving fraction (E31 [9]; 37 nM): 1.03
- surviving fraction (E31 [9]; 111.1 nM): 0.964
- surviving fraction (E31 [9]; 333.3 nM): 1.03
- surviving fraction (E31 [9]; 1000 nM): 1.18
- surviving fraction (E31 [9]; 3000 nM): 0.648
- surviving fraction (E21 [10]; 4.1 nM): 0.928
- surviving fraction (E21 [10]; 12.3 nM): 0.925
- surviving fraction (E21 [10]; 37 nM): 0.965
- surviving fraction (E21 [10]; 111.1 nM): 0.903
- surviving fraction (E21 [10]; 333.3 nM): 0.964
- surviving fraction (E21 [10]; 1000 nM): 0.762
- surviving fraction (E21 [10]; 3000 nM): 0.552
- surviving fraction (E28 [11]; 4.1 nM): 0.954
- surviving fraction (E28 [11]; 12.3 nM): 1.03
- surviving fraction (E28 [11]; 37 nM): 1.04
- surviving fraction (E28 [11]; 111.1 nM): 0.884
- surviving fraction (E28 [11]; 333.3 nM): 1.04
- surviving fraction (E28 [11]; 1000 nM): 0.839
- surviving fraction (E28 [11]; 3000 nM): 0.748
- surviving fraction (E57 [12]; 4.1 nM): 0.988
- surviving fraction (E57 [12]; 12.3 nM): 1.11
- surviving fraction (E57 [12]; 37 nM): 0.949
- surviving fraction (E57 [12]; 111.1 nM): 0.977
- surviving fraction (E57 [12]; 333.3 nM): 0.908
- surviving fraction (E57 [12]; 1000 nM): 0.776
- surviving fraction (E57 [12]; 3000 nM): 0.396
- surviving fraction (E13 [13]; 4.1 nM): 0.829
- surviving fraction (E13 [13]; 12.3 nM): 0.908
- surviving fraction (E13 [13]; 37 nM): 0.957
- surviving fraction (E13 [13]; 111.1 nM): 0.796
- surviving fraction (E13 [13]; 333.3 nM): 0.826
- surviving fraction (E13 [13]; 1000 nM): 0.68
- surviving fraction (E13 [13]; 3000 nM): 0.367
- surviving fraction (FT3469 [14]; 4.1 nM): 0.963
- surviving fraction (FT3469 [14]; 12.3 nM): 0.887
- surviving fraction (FT3469 [14]; 37 nM): 1.07
- surviving fraction (FT3469 [14]; 111.1 nM): 0.895
- surviving fraction (FT3469 [14]; 333.3 nM): 0.922
- surviving fraction (FT3469 [14]; 1000 nM): 0.792
- surviving fraction (FT3469 [14]; 3000 nM): 0.648
